Measurements: ChEMBL document CHEMBL5465560, “Selectivity Literature for EUbOPEN Chemogenomic Library” (2024)

What was measured:
[1] = target: Cyclin-dependent kinase 2 (Homo sapiens, UniProt P24941); test: Selectivity interaction (KinomeScan (DiscoverX)) EUB0000229b CDK2; details: at 10 µM
[2] = target: Serine/threonine-protein kinase 24 (Homo sapiens) (UniProt Q9Y6E0); test: Selectivity interaction (KinomeScan (DiscoverX)) EUB0000229b STK24; details: at 10 µM
[3] = target: T1, Tyrosine-protein kinase receptor TYRO3 (Homo sapiens) (UniProt Q06418); test: Selectivity interaction (KinomeScan (DiscoverX)) EUB0000092b TYRO3; details: at 10 µM
T1 sequence (whole entry): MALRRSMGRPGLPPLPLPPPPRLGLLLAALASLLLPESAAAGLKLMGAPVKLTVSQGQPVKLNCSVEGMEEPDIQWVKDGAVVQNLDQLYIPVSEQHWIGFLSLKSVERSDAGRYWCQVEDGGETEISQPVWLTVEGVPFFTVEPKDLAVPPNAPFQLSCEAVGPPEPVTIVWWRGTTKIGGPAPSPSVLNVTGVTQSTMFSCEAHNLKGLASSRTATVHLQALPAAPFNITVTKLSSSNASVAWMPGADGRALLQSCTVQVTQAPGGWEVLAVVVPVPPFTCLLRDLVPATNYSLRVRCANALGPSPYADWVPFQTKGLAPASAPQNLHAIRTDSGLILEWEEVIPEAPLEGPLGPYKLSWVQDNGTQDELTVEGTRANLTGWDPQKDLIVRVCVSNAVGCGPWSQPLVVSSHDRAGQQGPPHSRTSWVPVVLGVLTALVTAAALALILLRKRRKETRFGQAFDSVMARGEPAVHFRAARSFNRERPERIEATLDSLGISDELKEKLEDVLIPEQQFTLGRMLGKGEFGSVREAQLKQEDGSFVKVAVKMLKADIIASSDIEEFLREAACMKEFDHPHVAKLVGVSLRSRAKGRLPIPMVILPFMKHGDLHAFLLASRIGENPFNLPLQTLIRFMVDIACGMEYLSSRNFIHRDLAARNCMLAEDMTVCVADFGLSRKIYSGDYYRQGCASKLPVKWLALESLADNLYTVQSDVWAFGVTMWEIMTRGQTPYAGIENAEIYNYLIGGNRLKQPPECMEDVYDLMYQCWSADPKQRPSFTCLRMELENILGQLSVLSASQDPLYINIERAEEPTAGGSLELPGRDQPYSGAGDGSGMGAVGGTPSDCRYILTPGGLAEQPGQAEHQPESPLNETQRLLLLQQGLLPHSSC

[4] = target: Interferon-induced, double-stranded RNA-activated protein kinase (Homo sapiens) (UniProt P19525); test: Selectivity interaction (Kinase panel (KiNativ target engagement assay in Jurkat cells)) EUB0001635a EIF2AK2; assay type: cell-based; details: Selectivity number of off-targets 0.0, Selectivity number of targets 233.0, Source Knowledge https://www.sciencedirect.com/science/article/pii/S2451945619300674?via%3Dihub, at 1 µM
[5] = target: Serine/threonine-protein kinase WNK1 (Homo sapiens) (UniProt Q9H4A3); test: Selectivity interaction (KinomeScan (DiscoverX)) EUB0000666a WNK1; details: at 10 µM
[6] = target: Serine/threonine-protein kinase pim-1 (Homo sapiens, UniProt P11309); test: Selectivity interaction (Kinase panel (Invitrogen)) EUB0000639a PIM1; details: at 200 nM
[7] = target: RAF proto-oncogene serine/threonine-protein kinase (Homo sapiens) (UniProt P04049); test: Selectivity interaction (KinomeScan (DiscoverX)) EUB0000607a RAF1; details: at 10 µM
[8] = target: Serine/threonine-protein kinase OSR1 (Homo sapiens) (UniProt O95747); test: Selectivity interaction (KinomeScan (DiscoverX)) EUB0000607a OXSR1; details: at 10 µM
[9] = target: Calcium/calmodulin-dependent protein kinase kinase 2 (Homo sapiens) (UniProt Q96RR4); test: Selectivity interaction (Kinase panel (literature)) EUB0001199aCl CAMKK2; details: at 1 µM
[10] = target: T2, Atypical kinase COQ8B, mitochondrial (Homo sapiens) (UniProt Q96D53); test: Selectivity interaction (Ambit KINOMEscan and KiNATiv profiling in Jurkat cells) EUB0000090b ADCK4; assay type: cell-based; details: at 1 µM
T2 sequence (whole entry): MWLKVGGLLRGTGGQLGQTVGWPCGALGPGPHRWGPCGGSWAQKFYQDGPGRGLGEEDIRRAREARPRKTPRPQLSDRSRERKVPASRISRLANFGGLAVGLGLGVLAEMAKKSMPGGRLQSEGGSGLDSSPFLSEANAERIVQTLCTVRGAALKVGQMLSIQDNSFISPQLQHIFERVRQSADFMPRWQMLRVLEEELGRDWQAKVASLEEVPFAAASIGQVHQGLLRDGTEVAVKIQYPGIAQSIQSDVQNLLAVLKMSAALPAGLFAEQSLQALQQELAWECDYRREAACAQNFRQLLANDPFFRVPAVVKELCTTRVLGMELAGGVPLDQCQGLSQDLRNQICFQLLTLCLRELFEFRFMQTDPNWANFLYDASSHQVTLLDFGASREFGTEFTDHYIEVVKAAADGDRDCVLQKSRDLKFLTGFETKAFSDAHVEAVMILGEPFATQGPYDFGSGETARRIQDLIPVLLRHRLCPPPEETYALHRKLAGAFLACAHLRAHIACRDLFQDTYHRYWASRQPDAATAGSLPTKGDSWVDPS

[11] = target: Tyrosine-protein kinase HCK (Homo sapiens) (UniProt P08631); test: Selectivity interaction (Kinase screening (Nanosyn)) EUB0000604a HCK
[12] = target: T3, Mitogen-activated protein kinase kinase kinase 2 (Homo sapiens) (UniProt Q9Y2U5); test: Selectivity interaction (ActivX KiNativ screen (ex vivo kinase selectivity in human PBMCs)) EUB0001619a MAP3K2; assay type: cell-based; details: PBMC, at 1 µM
T3 sequence (whole entry): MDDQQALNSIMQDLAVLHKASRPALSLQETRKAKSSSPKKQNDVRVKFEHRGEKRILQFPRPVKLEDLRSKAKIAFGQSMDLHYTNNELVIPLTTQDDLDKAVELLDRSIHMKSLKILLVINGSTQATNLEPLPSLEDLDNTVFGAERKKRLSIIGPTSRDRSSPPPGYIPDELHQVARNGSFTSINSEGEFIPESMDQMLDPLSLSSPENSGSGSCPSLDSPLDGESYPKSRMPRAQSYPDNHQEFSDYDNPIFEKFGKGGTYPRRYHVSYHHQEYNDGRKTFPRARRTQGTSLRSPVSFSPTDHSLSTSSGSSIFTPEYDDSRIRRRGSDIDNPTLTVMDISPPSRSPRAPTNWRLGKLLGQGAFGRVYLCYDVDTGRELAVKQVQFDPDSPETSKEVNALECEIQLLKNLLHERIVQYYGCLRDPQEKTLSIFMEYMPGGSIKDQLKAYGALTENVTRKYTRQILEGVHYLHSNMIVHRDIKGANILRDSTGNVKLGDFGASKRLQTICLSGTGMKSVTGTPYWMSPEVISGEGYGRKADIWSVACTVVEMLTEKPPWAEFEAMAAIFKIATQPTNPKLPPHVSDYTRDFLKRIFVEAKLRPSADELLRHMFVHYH

Chain of Serine/threonine-protein kinase OSR1 (Homo sapiens) (O95747 2-527 limits assumed): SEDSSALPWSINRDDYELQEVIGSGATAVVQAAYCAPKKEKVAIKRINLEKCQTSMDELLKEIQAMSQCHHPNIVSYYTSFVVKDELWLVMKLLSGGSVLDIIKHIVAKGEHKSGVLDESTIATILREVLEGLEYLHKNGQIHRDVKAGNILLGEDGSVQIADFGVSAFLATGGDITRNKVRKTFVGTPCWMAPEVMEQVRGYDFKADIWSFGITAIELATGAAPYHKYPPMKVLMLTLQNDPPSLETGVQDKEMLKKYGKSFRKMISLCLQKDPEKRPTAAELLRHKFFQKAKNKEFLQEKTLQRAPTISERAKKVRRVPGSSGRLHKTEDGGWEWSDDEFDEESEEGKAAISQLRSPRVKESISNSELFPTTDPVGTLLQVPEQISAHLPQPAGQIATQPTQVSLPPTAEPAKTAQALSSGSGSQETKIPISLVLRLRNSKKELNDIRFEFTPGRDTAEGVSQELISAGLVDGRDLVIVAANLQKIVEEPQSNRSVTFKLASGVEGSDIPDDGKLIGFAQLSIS
Chain of Tyrosine-protein kinase HCK (Homo sapiens) (P08631 2-526 limits assumed): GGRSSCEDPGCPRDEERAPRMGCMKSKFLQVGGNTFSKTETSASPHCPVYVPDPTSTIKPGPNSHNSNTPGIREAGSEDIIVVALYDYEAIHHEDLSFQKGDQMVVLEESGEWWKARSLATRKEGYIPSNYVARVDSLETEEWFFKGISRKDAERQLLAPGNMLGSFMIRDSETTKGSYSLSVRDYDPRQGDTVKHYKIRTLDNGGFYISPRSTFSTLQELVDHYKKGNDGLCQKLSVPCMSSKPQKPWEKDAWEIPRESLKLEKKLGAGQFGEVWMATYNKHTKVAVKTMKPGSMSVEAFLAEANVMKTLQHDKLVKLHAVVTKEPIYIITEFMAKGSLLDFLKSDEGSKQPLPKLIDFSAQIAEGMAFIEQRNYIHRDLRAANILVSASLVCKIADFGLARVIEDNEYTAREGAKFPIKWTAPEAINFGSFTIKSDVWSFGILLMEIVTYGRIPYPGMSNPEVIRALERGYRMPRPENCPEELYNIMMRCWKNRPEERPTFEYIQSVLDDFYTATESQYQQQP
Chain of RAF proto-oncogene serine/threonine-protein kinase (Homo sapiens) (P04049 whole entry): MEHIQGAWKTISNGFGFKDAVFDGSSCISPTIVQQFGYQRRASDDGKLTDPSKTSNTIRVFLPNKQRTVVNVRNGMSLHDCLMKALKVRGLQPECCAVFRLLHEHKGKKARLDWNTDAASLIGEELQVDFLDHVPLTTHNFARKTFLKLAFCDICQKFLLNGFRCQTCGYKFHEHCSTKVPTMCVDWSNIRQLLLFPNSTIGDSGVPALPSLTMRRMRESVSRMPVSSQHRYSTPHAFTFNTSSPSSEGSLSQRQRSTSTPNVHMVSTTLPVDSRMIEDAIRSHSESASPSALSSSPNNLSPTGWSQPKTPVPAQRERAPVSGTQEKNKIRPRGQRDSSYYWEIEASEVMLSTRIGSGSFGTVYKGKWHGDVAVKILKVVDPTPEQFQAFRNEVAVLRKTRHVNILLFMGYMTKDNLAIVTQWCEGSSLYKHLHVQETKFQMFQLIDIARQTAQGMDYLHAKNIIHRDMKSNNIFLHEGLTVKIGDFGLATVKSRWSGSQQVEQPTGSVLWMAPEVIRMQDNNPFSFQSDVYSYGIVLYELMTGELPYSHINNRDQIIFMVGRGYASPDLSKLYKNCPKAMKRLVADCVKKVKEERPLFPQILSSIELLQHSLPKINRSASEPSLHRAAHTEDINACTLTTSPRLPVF
Chain of Interferon-induced, double-stranded RNA-activated protein kinase (Homo sapiens) (P19525 whole entry): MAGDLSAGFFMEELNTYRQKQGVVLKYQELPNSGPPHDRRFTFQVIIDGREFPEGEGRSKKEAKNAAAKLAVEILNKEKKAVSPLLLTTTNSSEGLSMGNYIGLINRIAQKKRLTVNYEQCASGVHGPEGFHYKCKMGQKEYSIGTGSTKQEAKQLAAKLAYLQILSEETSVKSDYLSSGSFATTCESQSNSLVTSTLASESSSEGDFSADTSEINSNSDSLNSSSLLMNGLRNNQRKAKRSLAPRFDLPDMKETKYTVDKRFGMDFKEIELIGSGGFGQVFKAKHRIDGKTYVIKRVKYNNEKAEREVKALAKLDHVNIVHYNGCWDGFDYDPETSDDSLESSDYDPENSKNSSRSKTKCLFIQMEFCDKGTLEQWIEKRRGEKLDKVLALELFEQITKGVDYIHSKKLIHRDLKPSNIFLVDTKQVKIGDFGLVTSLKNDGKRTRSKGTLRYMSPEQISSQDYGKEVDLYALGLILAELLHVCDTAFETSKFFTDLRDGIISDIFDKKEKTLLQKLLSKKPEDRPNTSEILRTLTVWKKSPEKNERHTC
Chain of Serine/threonine-protein kinase WNK1 (Homo sapiens) (Q9H4A3 whole entry, looked up): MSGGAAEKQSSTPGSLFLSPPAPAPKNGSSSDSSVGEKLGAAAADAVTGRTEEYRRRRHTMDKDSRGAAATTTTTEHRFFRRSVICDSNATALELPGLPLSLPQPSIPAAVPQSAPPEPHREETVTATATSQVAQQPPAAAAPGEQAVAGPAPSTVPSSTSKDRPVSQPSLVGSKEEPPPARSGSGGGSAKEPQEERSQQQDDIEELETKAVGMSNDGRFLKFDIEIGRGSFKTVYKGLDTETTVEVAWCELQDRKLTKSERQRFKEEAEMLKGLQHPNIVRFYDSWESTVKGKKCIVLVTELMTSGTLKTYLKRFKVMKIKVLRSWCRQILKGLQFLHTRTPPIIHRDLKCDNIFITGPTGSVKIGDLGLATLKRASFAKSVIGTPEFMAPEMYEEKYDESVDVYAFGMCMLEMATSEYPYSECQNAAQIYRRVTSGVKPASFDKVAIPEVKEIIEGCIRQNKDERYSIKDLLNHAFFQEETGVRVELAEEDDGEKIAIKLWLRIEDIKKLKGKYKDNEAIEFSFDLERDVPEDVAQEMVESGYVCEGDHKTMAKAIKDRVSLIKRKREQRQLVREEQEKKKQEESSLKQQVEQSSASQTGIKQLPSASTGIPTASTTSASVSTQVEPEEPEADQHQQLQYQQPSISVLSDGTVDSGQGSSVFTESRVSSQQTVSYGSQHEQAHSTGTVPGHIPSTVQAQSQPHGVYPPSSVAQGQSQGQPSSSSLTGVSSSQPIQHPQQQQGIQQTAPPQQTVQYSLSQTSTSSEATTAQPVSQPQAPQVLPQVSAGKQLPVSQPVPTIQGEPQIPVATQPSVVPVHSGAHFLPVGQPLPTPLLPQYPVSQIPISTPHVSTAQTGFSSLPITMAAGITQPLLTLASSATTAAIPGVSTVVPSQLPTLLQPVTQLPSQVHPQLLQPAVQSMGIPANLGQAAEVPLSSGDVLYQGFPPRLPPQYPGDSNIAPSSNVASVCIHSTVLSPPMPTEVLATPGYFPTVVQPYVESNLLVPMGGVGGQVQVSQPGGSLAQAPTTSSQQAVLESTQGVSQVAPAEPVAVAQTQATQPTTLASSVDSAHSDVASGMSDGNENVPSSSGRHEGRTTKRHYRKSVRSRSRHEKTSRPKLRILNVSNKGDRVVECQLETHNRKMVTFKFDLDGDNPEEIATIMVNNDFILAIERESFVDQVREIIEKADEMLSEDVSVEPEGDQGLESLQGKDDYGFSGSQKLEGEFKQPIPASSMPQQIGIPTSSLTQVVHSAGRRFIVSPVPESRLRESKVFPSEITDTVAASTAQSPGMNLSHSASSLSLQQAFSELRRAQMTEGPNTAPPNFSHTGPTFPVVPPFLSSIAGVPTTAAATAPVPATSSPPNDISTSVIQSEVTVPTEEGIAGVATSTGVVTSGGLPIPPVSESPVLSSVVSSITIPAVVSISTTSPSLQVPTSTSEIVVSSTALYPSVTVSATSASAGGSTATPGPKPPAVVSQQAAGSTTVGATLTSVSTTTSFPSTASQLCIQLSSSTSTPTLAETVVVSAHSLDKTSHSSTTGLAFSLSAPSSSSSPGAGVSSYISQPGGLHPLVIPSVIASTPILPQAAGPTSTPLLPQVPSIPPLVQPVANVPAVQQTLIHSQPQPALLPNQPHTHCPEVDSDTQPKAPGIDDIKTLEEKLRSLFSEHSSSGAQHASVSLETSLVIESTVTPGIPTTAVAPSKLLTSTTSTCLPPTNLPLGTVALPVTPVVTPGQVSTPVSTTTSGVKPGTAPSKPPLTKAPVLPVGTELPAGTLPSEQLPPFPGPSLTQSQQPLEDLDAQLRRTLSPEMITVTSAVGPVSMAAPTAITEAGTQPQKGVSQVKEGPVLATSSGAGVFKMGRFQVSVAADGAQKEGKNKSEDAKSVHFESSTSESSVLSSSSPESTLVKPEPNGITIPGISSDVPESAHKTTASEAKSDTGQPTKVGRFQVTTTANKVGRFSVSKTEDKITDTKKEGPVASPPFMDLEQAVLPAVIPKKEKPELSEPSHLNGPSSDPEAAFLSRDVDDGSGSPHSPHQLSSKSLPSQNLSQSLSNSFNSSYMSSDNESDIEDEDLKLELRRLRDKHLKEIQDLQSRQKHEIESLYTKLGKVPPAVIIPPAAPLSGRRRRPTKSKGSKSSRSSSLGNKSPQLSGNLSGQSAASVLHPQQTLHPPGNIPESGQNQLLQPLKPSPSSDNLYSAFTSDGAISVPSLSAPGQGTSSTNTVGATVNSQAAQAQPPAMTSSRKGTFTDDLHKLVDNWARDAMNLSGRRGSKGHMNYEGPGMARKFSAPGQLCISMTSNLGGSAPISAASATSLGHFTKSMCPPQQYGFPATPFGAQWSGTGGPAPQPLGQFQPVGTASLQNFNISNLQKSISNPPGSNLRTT
Chain of Serine/threonine-protein kinase 24 (Homo sapiens) (Q9Y6E0 whole entry, looked up): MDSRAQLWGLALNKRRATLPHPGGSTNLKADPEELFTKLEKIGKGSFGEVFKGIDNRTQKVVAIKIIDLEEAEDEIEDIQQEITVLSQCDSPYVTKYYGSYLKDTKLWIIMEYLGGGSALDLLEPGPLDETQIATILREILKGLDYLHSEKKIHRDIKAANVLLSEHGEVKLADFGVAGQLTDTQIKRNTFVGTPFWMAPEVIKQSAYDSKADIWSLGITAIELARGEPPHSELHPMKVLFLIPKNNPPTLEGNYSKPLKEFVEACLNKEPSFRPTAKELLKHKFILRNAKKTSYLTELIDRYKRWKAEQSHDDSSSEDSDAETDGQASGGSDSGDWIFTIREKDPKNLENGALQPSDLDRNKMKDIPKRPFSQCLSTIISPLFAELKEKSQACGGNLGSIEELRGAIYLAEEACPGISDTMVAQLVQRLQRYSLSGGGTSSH

Work on `COc1cc(N(C)c2ccnc3ccc(C(F)(F)F)cc23)cc(OC)c1OC` yielded a % binding [1] of 100% and a % binding [2] of 95%.
`CCC(=O)N1CCN(c2ccc(-n3c(=O)ccc4cnc5ccc(-c6cnc7ccccc7c6)cc5c43)cc2C(F)(F)F)CC1` gave a % of control [3] of 31%.
Work on `C=CC(=O)Nc1ccc(C(=O)Nc2[nH]nc3c2CN(C(=O)N[C@H](CN(C)C)c2ccccc2)C3(C)C)cc1` yielded a % of engagement [4] of -5.3%.
With `O=C(NOC[C@H](O)CO)c1ccc(F)c(F)c1Nc1ccc(I)cc1F` the % of control [5] was 92%.
`CC[C@@H]1[C@H](F)C(=O)N[C@@H]1COc1nccc2cc(C(N)=O)c(OC)cc12` [ZIMLOVISERTIB] showed a % of inhibition [6] of 12.3%.
`CNC(=O)Nc1ccc(-c2nc(N3CC4CCC(C3)O4)c3cnn(C4CCC5(CC4)OCCO5)c3n2)cc1` was tested, and the % of control [7] was 100% and the % of control [8] was 100%.
`CN1Cc2nccc(-c3cn(C)nc3-c3ccc(F)cc3)c2C1=O` gave a % of inhibition [9] of -3%.
`CN(C)C/C=C/C(=O)Nc1ccc(C(=O)N2CCCC(Nc3ncc(Cl)c(-c4c[nH]c5ccccc45)n3)C2)cc1` (configuration not stated) gave a % of control [10] of 69%.
Work on `Cc1cnc(Nc2ccc(F)cc2Cl)nc1-c1c[nH]c(C(=O)N[C@H](CO)c2cccc(Cl)c2)c1` yielded a % of inhibition [11] of 3%.
For `N#Cc1cccc(-c2c[nH]c3ncnc(N4CCOCC4)c23)c1`, the % of inhibition [12] was 22%.
